Laboratory results taken from ChEMBL document CHEMBL5380843 (J Med Chem, 2023).

Experiments:
[1] = test system: Human immunodeficiency virus 1; test: Antiviral activity against wild type HIV-1 IIIB infected in human MT4 cells assessed as protection against virus-induced cytopathic effect incubated for 5 days by MTT assay; format: functional, organism-based; settings: Human immunodeficiency virus 1, IIIB, MT4, 120 h
[2] = Selectivity index, ratio of CC50 for cytotoxicity against human MT4 cells to EC50 for antiviral activity against wild type HIV-1 IIIB infected in human MT4 cells; format: toxicity, cell-based; settings: read-out: Ratio CC50/EC50
[3] = Cytotoxicity against human MT4 cells assessed as reduction in cell viability incubated for 5 days by MTT assay; format: toxicity, cell-based; settings: time 5 day
[4] = test system: Human immunodeficiency virus 1; test: Antiviral activity against wild type HIV-1 IIIB harboring reverse transcriptase […] mutant infected in human MT4 cells assessed as protection against virus-induced cytopathic effect incubated for 5 days by MTT assay; format: functional, organism-based; settings: Human immunodeficiency virus 1, IIIB, MT4, 120 h
[5] = Resistant factor, ratio of EC50 for antiviral activity against HIV-1 IIIB harboring reverse transcriptase […] mutant to EC50 for antiviral activity against wild type HIV-1 IIIB; format: functional
[6] = test system: Human immunodeficiency virus 1; test: Antiviral activity against wild type HIV-1 IIIB harboring reverse transcriptase K103N mutant infected in human MT4 cells assessed as protection against virus-induced cytopathic effect incubated for 5 days by MTT assay; format: functional, organism-based; settings: Human immunodeficiency virus 1, IIIB, MT4, 120 h
[7] = Resistant factor, ratio of EC50 for antiviral activity against HIV-1 IIIB harboring reverse transcriptase K103N mutant to EC50 for antiviral activity against wild type HIV-1 IIIB; format: functional
[8] = test system: Human immunodeficiency virus 1; test: Antiviral activity against wild type HIV-1 IIIB harboring reverse transcriptase Y181C mutant infected in human MT4 cells assessed as protection against virus-induced cytopathic effect incubated for 5 days by MTT assay; format: functional, organism-based; settings: Human immunodeficiency virus 1, IIIB, MT4, 120 h
[9] = Resistant factor, ratio of EC50 for antiviral activity against HIV-1 IIIB harboring reverse transcriptase Y181C mutant to EC50 for antiviral activity against wild type HIV-1 IIIB; format: functional
[10] = test system: Human immunodeficiency virus 1; test: Antiviral activity against wild type HIV-1 IIIB harboring reverse transcriptase Y188L mutant infected in human MT4 cells assessed as protection against virus-induced cytopathic effect incubated for 5 days by MTT assay; format: functional, organism-based; settings: Human immunodeficiency virus 1, IIIB, MT4, 120 h
[11] = Resistant factor, ratio of EC50 for antiviral activity against HIV-1 IIIB harboring reverse transcriptase Y188L mutant to EC50 for antiviral activity against wild type HIV-1 IIIB; format: functional
[12] = test system: Human immunodeficiency virus 1; test: Antiviral activity against wild type HIV-1 IIIB harboring reverse transcriptase E138K mutant infected in human MT4 cells assessed as protection against virus-induced cytopathic effect incubated for 5 days by MTT assay; format: functional, organism-based; settings: Human immunodeficiency virus 1, IIIB, MT4, 120 h
[13] = Resistant factor, ratio of EC50 for antiviral activity against HIV-1 IIIB harboring reverse transcriptase E138K mutant to EC50 for antiviral activity against wild type HIV-1 IIIB; format: functional
[14] = target: Human immunodeficiency virus type 1 reverse transcriptase (Human immunodeficiency virus 1, UniProt Q72547); test: Inhibition of recombinant wild type HIV-1 reverse transcriptase using DNA/RNA as substrate incubated for 40 mins by Pico-green dye based spectrofluorometric analysis

| SMILES | EC50 [1] [nM] | selectivity ratio [2] | CC50 at 120 h [3] [nM] | EC50 [4] [nM] | Ratio EC50 [5] | EC50 [6] [nM] | Ratio EC50 [7] | EC50 [8] [nM] | Ratio EC50 [9] | EC50 [10] [nM] | Ratio EC50 [11] | EC50 [12] [nM] | Ratio EC50 [13] | IC50 [14] [nM] |
| --- | --- | --- | --- | --- | --- | --- | --- | --- | --- | --- | --- | --- | --- | --- |
| Cc1cc(-c2ccc(C#N)cc2)cc(C)c1Oc1nc(Nc2ccc(C#N)cc2)ncc1C(=O)NC1CCC1 | 65 | > 3750 | > 243000 | 396 | 6.1 | 308 | 4.7 | 1020 | 16 | 1320 | 20 | 171 | 2.6 | 327 |
| Cc1cc(-c2ccc(C#N)cc2)cc(C)c1Oc1nc(Nc2ccc(C#N)cc2)ncc1C(N)=O | 16 | > 2760 | > 43400 | 22 | 1.4 | 26 | 1.6 | 206 | 13 | 150 | 9.4 | 39 | 2.4 | 26 |
| COc1cc(-c2ccc(C#N)cc2)ccc1Oc1nc(Nc2ccc(C#N)cc2)ncc1C(N)=O | 18 | > 15300 | > 276000 | 6 | 0.3 | 4 | 0.2 | 136 | 7.6 | 191 | 11 | – | 1 | 28 |
| CCCNC(=O)c1cnc(Nc2ccc(C#N)cc2)nc1Oc1c(C)cc(-c2ccc(C#N)cc2)cc1C | 13 | 14700 | 86600 | 55 | 4.2 | 31 | 2.4 | 196 | 15 | 275 | 21 | 39 | 3 | 191 |
| N#Cc1ccc(Nc2ncc(C(N)=O)c(Oc3c(F)cc(-c4ccc(C#N)cc4)cc3F)n2)cc1 | 30 | > 1780 | > 53400 | 1210 | 40 | 175 | 5.8 | 10900 | 362 | 35300 | 1178 | 159 | 5.3 | 21 |
| Cc1cc(-c2ccc(C#N)cc2)cc(Cl)c1Oc1nc(Nc2ccc(C#N)cc2)ncc1C(N)=O | 33 | > 1270 | > 41600 | 49 | 1.5 | 31 | 0.9 | 35 | 1.1 | 94 | 2.8 | 5 | 0.2 | 66 |
| N#Cc1ccc(Nc2ncc(C(N)=O)c(Oc3ccc(-c4ccc(C#N)cc4)cc3F)n2)cc1 | 162 | > 1720 | > 278000 | 231000 | 1429 | 63400 | 391 | > 278000 | >1713 | > 278000 | >1713 | 1610 | 9.9 | 25 |
| O=C1Nc2ccc(Cl)cc2[C@@](C#CC2CC2)(C(F)(F)F)O1 [EFAVIRENZ] | 7 | – | > 6340 | 44 | – | 102 | – | 7 | – | 290 | – | 6 | – | – |
| Cc1cc(C#N)cc(C)c1Oc1nc(Nc2ccc(C#N)cc2)nc(N)c1Br [ETRAVIRINE] | 6 | – | > 4610 | 7 | – | 3 | – | 12 | – | 20 | – | 7 | – | – |
| Cc1ccnc2c1NC(=O)c1cccnc1N2C1CC1 [NEVIRAPINE] | – | – | > 15000 | 2100 | – | > 10100 | – | > 15900 | – | > 15900 | – | 210 | – | – |
| Cc1cc(/C=C/C#N)cc(C)c1Nc1ccnc(Nc2ccc(C#N)cc2)n1 [RILPIVIRINE] | – | – | – | 2 | – | 1 | – | 4 | – | – | – | – | – | – |
